“Also recorded” adds a separate entry of the source. Read-outs that look alike come from different tables or passages of the source.
Columns and labels:
[1] = target: Recombinant ROCK1 (amino acids 1-535) (Homo sapiens (Human), UniProt Q13464); assay: Z′-Lyte kinase assay, ROCK1; format: biochemical; conditions: for inhibition at 0.5 µM: 0.5 μM compound
Outline: (§1)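 Recombinant human ROCK1 (aa 1-535) or ROCK2 (aa 1-552) activity read by Z′-Lyte kinase assay. Percent inhibition at 1 μM compound was normalized to DMSO control; IC50 from 9-point 2-fold serial dilutions by nonlinear regression.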

[2] = target: Recombinant ROCK2 (amino acids 1-552) (Homo sapiens (Human), UniProt O75116); assay: Z′-Lyte kinase assay, ROCK2; format: biochemical; conditions: for inhibition at 0.5 µM: 0.5 μM compound
Recombinant ROCK2 (amino acids 1-552), sequence (O75116 1-552): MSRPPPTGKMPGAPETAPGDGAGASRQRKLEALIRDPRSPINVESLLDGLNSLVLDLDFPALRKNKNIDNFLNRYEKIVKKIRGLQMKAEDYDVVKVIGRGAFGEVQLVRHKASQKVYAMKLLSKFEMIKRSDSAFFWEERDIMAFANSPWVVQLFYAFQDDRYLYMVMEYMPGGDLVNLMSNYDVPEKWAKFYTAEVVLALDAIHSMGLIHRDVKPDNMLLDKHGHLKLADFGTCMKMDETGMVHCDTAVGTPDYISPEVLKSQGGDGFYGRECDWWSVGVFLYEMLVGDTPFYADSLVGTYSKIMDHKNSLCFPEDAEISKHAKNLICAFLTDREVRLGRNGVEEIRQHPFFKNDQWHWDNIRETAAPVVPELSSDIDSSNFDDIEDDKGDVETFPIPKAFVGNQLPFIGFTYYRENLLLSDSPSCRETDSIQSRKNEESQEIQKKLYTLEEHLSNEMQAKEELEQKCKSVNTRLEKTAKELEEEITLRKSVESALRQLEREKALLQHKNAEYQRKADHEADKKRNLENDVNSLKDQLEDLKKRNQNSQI
Outline: as §1

[3] = system: ppMlc (T18/S19) levels in A7R5 cells; assay: A7R5 in-cell ELISA (pMLC); format: cell-based, Rat; conditions: Rattus norvegicus, A7R5, A7R5 cells; for inhibition at 1 µM: 1 μM compound; for inhibition at 1 µM / inhibition at 10 µM: read-out: pMLC % inh A7R5 @ [conc]; for inhibition at 10 µM: 10 μM compound
Outline: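 A7R5 rat aortic smooth muscle cells seeded 24 h, then treated 90 min with a 9-point 2-fold compound dilution series. Fixed cells probed for ppMlc (T18/S19) by colorimetric in-cell ELISA; cellular IC50 from nonlinear regression curve fit.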

[4] = system: human ACTA2 gene promoter luciferase reporter in NIH3T3 cells; assay: NIH3T3 Acta2-promoter driven-luciferase assay; format: cell-based; conditions: NIH3T3, 24 h, read-out: NIH3T3 Acta2-luc, IC50
Outline: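 NIH3T3 cells stably carrying a human ACTA2 promoter (−1000-1 bp)-luciferase reporter, grown to confluence, treated 24 hr with compound plus TGFβ1 at 9-point serial dilution. Luciferase read after lysis; IC50 by nonlinear regression.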

[5] = system: CCD18lu human lung fibroblasts; assay: F-actin stress fiber formation (phalloidin staining); format: cell-based
[6] = system: MKL1 in CCD18Lu human lung fibroblasts; assay: MKL1 nuclear translocation, immunofluorescent staining; format: cell-based; conditions: 3 μM, 3 hours
Description: FIG. 3. Immunofluorescent staining of MKL1 in human lung fibroblasts. CCD18Lu human lung fibroblasts were treated with compounds for 3 hours and fixed and stained for MKL1, F-actin and DAPI. […] The Example 228 compound abolished nuclear accumulation of MKL1 in cultured human lung fibroblasts. CCD18Lu human lung fibroblasts were treated with the ROCK inhibitor (3 μM) for 3 hours and fixed and stained for MKL1, F-actin and DAPI.

[7] = system: Detroit 562 cells; assay: Integrin αvβ6 mediated latent TGFβ activation (phospho-Smad2/3); format: cell-based; conditions: with thrombin, 2 hours
Description: FIG. 5. ROCK inhibitor (Example 228) blocked integrin αvβ6 mediated latent TGFβ activation. Integrin αvβ6 positive cell line Detroit 562 cells were plated and treated with compounds in combination with parl ligand thrombin for 2 hours, lysed and activation of TGFβ signaling was detected by phosphorylation of transcription factors Smad2/3. Integrin αvβ6 mediated latent TGFβ activation requires ROCK activity (Jenkins et al., 2006). Activation of the latent TGF3 complex is a key step in regulating the biological availability of this molecule and its subsequent activities. Under tissue injury, extracellular protease cleavage of cell membrane receptor protease-activated receptor 1 (parl) leads to activation of Rho/ROCK, which in turn activates latent ECM associated TGFβ through cell membrane integrin αvβ6. […] Integrin αvβ6 positive cell line Detroit 562 cells were plated and treated with compounds in combination with parl ligand thrombin for 2 hours, lysed and activation of TGFβ signaling was detected by phosphorylation of transcription factors Smad2/3.

[8] = system: ppMLC in SVEC4-10 cells; assay: Thrombin induced MLC phosphorylation western blot; format: cell-based, Mouse; conditions: SVEC4-10 endothelial cells, increasing doses of thrombin, 10 min
Description: FIG. 7b. […] Mouse endothelial cell line SVEC4-10 cells were cultured and treated with increasing doses of thrombin in combination with ROCKi for 10 min. ppMLC signal was detected by western blot. […] Mouse endothelial cell line SVEC4-10 was cultured and treated with increasing doses of thrombin in combination with ROCK inhibitor for 10 min. ppMLC signal was detected by western blot. […] Collectively, the above data strongly supports the ROCK inhibitors of the invention as an effective intervention in fibrotic diseases.

[9] = 9 points 2-fold serial dilution
[10] = NIH3T3 cells, plus TGFβ1 for 24 hr
[11] = read-out: ROCK1 % inh. @ [conc]
[12] = read-out: ROCK2 % inh. @ [conc]

Recombinant ROCK1 (amino acids 1-535), sequence (Q13464 1-535): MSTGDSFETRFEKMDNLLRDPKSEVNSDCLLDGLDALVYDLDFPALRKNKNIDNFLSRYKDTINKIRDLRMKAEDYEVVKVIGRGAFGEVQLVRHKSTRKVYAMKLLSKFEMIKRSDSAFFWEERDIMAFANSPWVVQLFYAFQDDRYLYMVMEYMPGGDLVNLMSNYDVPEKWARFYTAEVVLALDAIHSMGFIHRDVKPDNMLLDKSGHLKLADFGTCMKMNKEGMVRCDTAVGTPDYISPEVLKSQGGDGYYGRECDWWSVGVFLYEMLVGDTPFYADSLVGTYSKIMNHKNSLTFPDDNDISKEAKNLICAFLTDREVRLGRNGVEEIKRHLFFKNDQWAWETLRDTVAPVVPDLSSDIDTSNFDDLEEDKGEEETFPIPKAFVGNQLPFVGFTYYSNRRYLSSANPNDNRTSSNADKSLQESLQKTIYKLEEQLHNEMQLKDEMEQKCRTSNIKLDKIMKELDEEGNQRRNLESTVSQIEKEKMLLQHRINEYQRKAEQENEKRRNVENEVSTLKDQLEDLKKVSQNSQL

What does the source list for `Fc1cnc(N2CC3CC2CN3)nc1Nc1ccc2[nH]ncc2c1` (stereo not drawn) [Example 219, N-(2-(2,5-diazabicyclo[2.2.1]heptan-2-yl)-5-fluoropyrimidin-4-yl)-1H-indazol-5-amine]?
IC50 [1, 9]: 18 nM; IC50 [2, 9]: 41 nM; inhibition at 1 µM [3]: 46.6%; IC50 ([3]; ppMlc (T18/S19)): 77 nM; IC50 [4, 10]: 613 nM

With `Fc1cnc(N2C3CNCC2C3)nc1Nc1ccc2[nH]ncc2c1` [Example 220, N-(2-(3,6-diazabicyclo[3.1.1]heptan-6-yl)-5-fluoropyrimidin-4-yl)-1H-indazol-5-amine] as the molecule, how does the IC50 [1, 9] read?
The IC50 was 3.1 nM.

And the IC50 [2, 9]?
The IC50 was 5.9 nM.

What about the inhibition at 1 µM [3] of the same molecule?
Its inhibition at 1 µM is 45.1%.

And the IC50 ([3]; ppMlc (T18/S19))?
The IC50 was 74 nM.

What about the IC50 [4, 10] of the same molecule?
The IC50 was 167 nM.

How did the inhibition at 3 µM ([1]; 3 μM compound, read-out: ROCK1 % inh. @ [conc]) turn out when `c1cc(Nc2ccc3[nH]ncc3c2)nc(N2C3CCC2CNC3)n1` [Example 228, N-(2-(3,8-diazabicyclo[3.2.1]octan-8-yl)pyrimidin-4-yl)-1H-indazol-5-amine] was run?
The inhibition at 3 µM was 98.5%.

What about the IC50 [1, 9] of the same molecule?
Its IC50 is 4 nM.

And the inhibition at 3 µM ([2]; 3 μM compound, read-out: ROCK2 % inh. @ [conc])?
The inhibition at 3 µM was 101%.

And the IC50 [2, 9]?
The IC50 was 3 nM.

And the inhibition at 10 µM [3]?
Its inhibition at 10 µM is 83%.

And the IC50 ([3]; ppMlc (T18/S19))?
The IC50 was 69 nM.

What about the IC50 [4, 10] of the same molecule?
Its IC50 is 151 nM.

And the “F-actin stress fiber formation” value [5]?
The value was “phenotypically copied gene silencing; also recorded: inhibited”.

What about the “nuclear accumulation of MKL1” value [6] of the same molecule?
Its value is “abolished”.

And the stress fiber formation ([6]; F-actin staining)?
Its stress fiber formation is “efficiently cleared”.

What about the “integrin αvβ6 mediated latent TGFβ activation (phosphorylation of Smad2/3)” value [7] of the same molecule?
Its value is “blocked”.

And the “thrombin induced phosphorylation of MLC” value [8]?
Its value is “potently inhibited”.

`CC1CNCCN(c2nccc(Nc3ccc4[nH]ncc4c3)n2)C1` (stereo not drawn) [Example 237, N-(2-(6-methyl-1,4-diazepan-1-yl)pyrimidin-4-yl)-1H-indazol-5-amine] was tested. Which IC50 [1, 9] did it give?
Its IC50 is 63 nM.

And the IC50 [2, 9]?
Its IC50 is 104 nM.

And the inhibition at 10 µM [3]?
Its inhibition at 10 µM is 68.2%.

And the IC50 ([3]; ppMlc (T18/S19))?
The IC50 was 423 nM.

And the IC50 [4, 10]?
The IC50 was 2350 nM.

What does the source list for `Cc1nc(N2C3CCC2CNC3)nc(Nc2ccc3[nH]ncc3c2)c1F` [Example 302, N-(2-(3,8-diazabicyclo[3.2.1]octan-8-yl)-5-fluoro-6-methylpyrimidin-4-yl)-1H-indazol-5-amine]?
inhibition at 0.5 µM [1, 11]: 99%; IC50 [2]: 2.2 nM; inhibition at 0.5 µM [2, 12]: 98%; IC50 [3]: 35 nM; IC50 ([4]; with TGFβ1, 24 hr): 229 nM

Which results are given for `CC(=O)N1Cc2nc(N3C4CCC3CNC4)nc(Nc3ccc4[nH]ncc4c3)c2C1` [Example 314, 1-(4-((1H-indazol-5-yl)amino)-2-(3,8-diazabicyclo[3.2.1]octan-8-yl)-5,7-dihydro-6H-pyrrolo[3,4-d]pyrimidin-6-yl)ethan-1-one]?
inhibition at 0.5 µM [1, 11]: 81%; IC50 [2]: 80 nM; inhibition at 0.5 µM [2, 12]: 94%; IC50 [3]: > 5000 nM; IC50 ([4]; with TGFβ1, 24 hr): > 5000 nM

With `c1cc(-c2cn[nH]c2)ccc1Nc1nc(N2C3CNCC2C3)nc2c1COC2` [Example 316, N-(4-(1H-pyrazol-4-yl)phenyl)-2-(3,6-diazabicyclo[3.1.1]heptan-6-yl)-5,7-dihydrofuro[3,4-d]pyrimidin-4-amine] as the molecule, how does the inhibition at 0.5 µM [1, 11] read?
Its inhibition at 0.5 µM is 90%.

And the IC50 [2]?
The IC50 was 27 nM.

What about the inhibition at 0.5 µM [2, 12] of the same molecule?
Its inhibition at 0.5 µM is 85%.

And the IC50 [3]?
Its IC50 is 2420 nM.

What about the IC50 ([4]; with TGFβ1, 24 hr) of the same molecule?
Its IC50 is > 10000 nM.

What does the source list for `c1cc(-c2cn[nH]c2)ccc1Nc1nc(N2C3CNCC2C3)nc2c1COCC2` [Example 317, N-(4-(1H-pyrazol-4-yl)phenyl)-2-(3,6-diazabicyclo[3.1.1]heptan-6-yl)-7,8-dihydro-5H-pyrano[4,3-d]pyrimidin-4-amine]?
inhibition at 0.5 µM [1, 11]: 70%; IC50 [2]: 38 nM; inhibition at 0.5 µM [2, 12]: 75%; IC50 [3]: > 10000 nM; IC50 ([4]; with TGFβ1, 24 hr): > 10000 nM

With `Oc1nc(N2C3CCC2CNC3)nc(Nc2ccc3[nH]ncc3c2)c1F` [Example 320, 6-((1H-indazol-5-yl)amino)-2-(3,8-diazabicyclo[3.2.1]octan-8-yl)-5-fluoropyrimidin-4-ol] as the molecule, how does the IC50 [1] read?
Its IC50 is 8.7 nM.

And the inhibition at 0.5 µM [1, 11]?
Its inhibition at 0.5 µM is 95%.

And the IC50 [2]?
The IC50 was 18 nM.

And the inhibition at 0.5 µM [2, 12]?
The inhibition at 0.5 µM was 97%.

What about the IC50 [3] of the same molecule?
The IC50 was > 5000 nM.

And the IC50 ([4]; with TGFβ1, 24 hr)?
Its IC50 is > 5000 nM.

For `COc1nc(N2C3CCC2CNC3)nc(Nc2ccc3[nH]ncc3c2)c1Cl` [Example 321, N-(2-(3,8-diazabicyclo[3.2.1]octan-8-yl)-5-chloro-6-methoxypyrimidin-4-yl)-1H-indazol-5-amine], which inhibition at 0.5 µM [1, 11] is on record?
Its inhibition at 0.5 µM is 98%.

What about the IC50 [2] of the same molecule?
Its IC50 is 8 nM.

And the inhibition at 0.5 µM [2, 12]?
The inhibition at 0.5 µM was 100%.

And the IC50 [3]?
Its IC50 is 74 nM.

What about the IC50 ([4]; with TGFβ1, 24 hr) of the same molecule?
Its IC50 is 114 nM.

With `CN(C)c1cc(Nc2ccc3[nH]ncc3c2)nc(N2C3CCC2CNC3)n1` [Example 336, 2-(3,8-diazabicyclo[3.2.1]octan-8-yl)-N^4-(1H-indazol-5-yl)-N^6,N^6-dimethylpyrimidine-4,6-diamine] as the molecule, how does the inhibition at 0.5 µM [1, 11] read?
Its inhibition at 0.5 µM is 99%.

And the IC50 [2]?
Its IC50 is 3.6 nM.

What about the inhibition at 0.5 µM [2, 12] of the same molecule?
Its inhibition at 0.5 µM is 103%.

And the IC50 [3]?
Its IC50 is 25 nM.

What about the IC50 ([4]; with TGFβ1, 24 hr) of the same molecule?
The IC50 was 116 nM.
